Reference: article PMC6270991, “Design and Synthesis of Thiazolo[5,4-f]quinazolines as DYRK1A Inhibitors, Part I” (Molecules, 2014)
Like-named read-outs stand apart in the source and are kept apart here.

What was measured:
DYRK1A = DYRK1A (Rattus norvegicus, UniProt Q63470); assay: DYRK1A in vitro kinase assay (33P-ATP, Woodtide substrate); assay type: biochemical
Method: (§1) Buffer A: MgCl2 (10 mM), 1 mM ethylene glycol-bis(2-aminoethylether)-N,N,N',N'-tetraacetic acid (EGTA), 1 mM dithiothreitol (DTT), 25 mM Tris-HCl pH 7.5, 50 μg heparin/mL.
(§2) Controls were performed with appropriate dilutions of dimethylsulfoxide (DMSO). IC50 values were calculated from dose-response curves established by Sigma-Plots. The GSK-3, CK1, DYRK1A and CLK1 peptide substrates were obtained from Proteogenix (Oberhausbergen, France).
(§3) CDK5/p25. (Human, recombinant) was prepared as previously described. […] ATP (3000 Ci/mmol; 10 mCi/mL) in a final volume of 30 μL. After 30 min incubation at 30 °C, 25 μL aliquots of supernatant were spotted onto sheets of Whatman P81 phosphocellulose paper, and 20 s later, the filters were washed eight times (for at least 5 min each time) in a solution of 10 mL phosphoric acid/L of water. The wet filters were counted in the presence of 1 mL ACS (Amersham) scintillation fluid.

CK1δ/ε = CK1δ/ε in vitro kinase assay (33P-ATP, CK1-specific peptide substrate); assay type: biochemical, Porcine; details: 15 μM ATP, 30 min at 30 °C, triplicate; <50% inhibition at 10 µM reported as >10
Method: as §2, §3
CK1δ/ε. (Porcine brain, native) was assayed as described for CDK5/p25, but using the CK1-specific peptide substrate […]pSAYSITA [23].

CDK5/p25 = target: T1, CDK5/p25 (Homo sapiens, UniProt Q00535); assay: CDK5/p25 in vitro kinase assay (33P-ATP, histone H1); assay type: biochemical; details: read-out: CDK5 IC50
T1 construct: made in house
Method: as §1, §2, §3

GSK-3α/β = GSK-3α/β in vitro kinase assay (33P-ATP, GS-1 peptide); assay type: biochemical, Porcine; details: 15 μM ATP, 30 min at 30 °C, triplicate; <50% inhibition at 10 µM reported as >10; read-out: GSK3 IC50
Method: as §1, §2, §3
GSK-3α/β. (Porcine brain, native) was assayed as described for CDK5/p25, but in buffer A and using a GSK-3 specific substrate (GS-1: […]pSEDEEE) (pS stands for phosphorylated serine).

[1] = 15 μM ATP, 30 min at 30 °C, triplicate, <50% inhibition at 10 µM reported as >10

T1 sequence (Q00535 whole entry): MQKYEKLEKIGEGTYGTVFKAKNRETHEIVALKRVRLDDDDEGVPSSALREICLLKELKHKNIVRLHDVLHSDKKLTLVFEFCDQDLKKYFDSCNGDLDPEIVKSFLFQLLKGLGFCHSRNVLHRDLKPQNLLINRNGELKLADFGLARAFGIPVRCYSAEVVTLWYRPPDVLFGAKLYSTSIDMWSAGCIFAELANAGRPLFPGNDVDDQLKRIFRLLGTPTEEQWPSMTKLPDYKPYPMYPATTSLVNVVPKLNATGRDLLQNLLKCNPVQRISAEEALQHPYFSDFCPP
T1 sequence (Q15078 99-307 partner limits assumed): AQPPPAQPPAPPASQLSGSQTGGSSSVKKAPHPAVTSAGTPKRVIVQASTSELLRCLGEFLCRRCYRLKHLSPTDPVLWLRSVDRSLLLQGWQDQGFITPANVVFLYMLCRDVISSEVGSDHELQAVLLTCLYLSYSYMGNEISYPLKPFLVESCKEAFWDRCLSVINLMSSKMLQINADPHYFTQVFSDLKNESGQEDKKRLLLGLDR

| IC50 (DYRK1A) | IC50 (CK1δ/ε) | IC50 (CDK5/p25) | IC50 (GSK-3α/β) | melting point | SMILES | IC50 (DYRK1A; [1]) | IC50 (CDK5/p25; [1]) |
| --- | --- | --- | --- | --- | --- | --- | --- |
| > 10 µM | > 10 µM | > 10 µM | > 10 µM | > 260 °C | N#Cc1nc2ccc3ncnc(Nc4ccc5c(c4)OCO5)c3c2s1 [Compound 8, 9-(Benzo[d][1,3]dioxol-5-ylamino)thiazolo[5,4-f]quinazoline-2-carbonitrile] | – | – |
| 0.67 µM | > 10 µM | > 10 µM | 0.13 µM | – | NC(=O)c1nc2ccc3ncnc(Nc4ccc(Br)cc4F)c3c2s1 [Compound 9h, 9-(4-Bromo-2-fluorophenylamino)thiazolo[5,4-f]quinazoline-2-carboxamide] | – | – |
| > 10 µM | > 10 µM | > 10 µM | > 10 µM | 252 °C | N#Cc1nc2ccc3ncnc(Nc4ccc(F)c(Cl)c4)c3c2s1 [Compound 10, 9-(3-Chloro-4-fluorophenylamino)thiazolo[5,4-f]quinazoline-2-carbonitrile] | – | – |
| 4 µM | > 10 µM | > 10 µM | 1.3 µM | – | CCN(CC)CCNC(=N)c1nc2ccc3ncnc(Nc4ccc(OC)cc4)c3c2s1 [Compound 7e, N-(2-(Diethylamino)ethyl)-9-(4-methoxyphenylamino)thiazolo[5,4-f]quinazoline-2-carboximidamide] | – | – |
| 6.5 µM | > 10 µM | > 10 µM | 7.2 µM | – | CN(C)C(=N)c1nc2ccc3ncnc(Nc4ccc(F)c(Cl)c4)c3c2s1 [Compound 10g, 9-(3-Chloro-4-fluorophenylamino)-N,N-dimethylthiazolo[5,4-f]quinazoline-2-carboximidamide] | – | – |
| 8 µM | > 10 µM | > 10 µM | 2 µM | – | COc1ccc(Nc2ncnc3ccc4nc(C(=N)NCc5ccccc5)sc4c23)cc1 [Compound 7f, N-Benzyl-9-(4-methoxyphenylamino)thiazolo[5,4-f]quinazoline-2-carboximidamide] | – | – |
| 0.7 µM | > 10 µM | > 10 µM | 1.1 µM | – | COc1ccc(Nc2ncnc3ccc4nc(C(=N)N(C)C)sc4c23)cc1 [Compound 7g, 9-(4-Methoxyphenylamino)-N,N-dimethylthiazolo[5,4-f]quinazoline-2-carboximidamide] | – | – |
| – | > 10 µM | – | 1.1 µM | – | N=C(NCCN1CCCCC1)c1nc2ccc3ncnc(Nc4ccc5c(c4)OCO5)c3c2s1 [Compound 8b, 9-(Benzo[d][1,3]dioxol-5-ylamino)-N-(2-(piperidin-1-yl)ethyl)thiazolo[5,4-f]quinazoline-2-carboximi-damide] | 2 µM | > 10 µM |
| 0.8 µM | > 10 µM | > 10 µM | 0.77 µM | – | NC(=O)c1nc2ccc3ncnc(Nc4ccc5c(c4)OCO5)c3c2s1 [Compound 8h, 9-(Benzo[d][1,3]dioxol-5-ylamino)thiazolo[5,4-f]quinazoline-2-carboxamide] | – | – |
| 0.047 µM | > 10 µM | > 10 µM | 0.66 µM | – | COC(=N)c1nc2ccc3ncnc(Nc4ccc5c(c4)OCO5)c3c2s1 [Compound 8i, Methyl 9-(benzo[d][1,3]dioxol-5-ylamino)thiazolo[5,4-f]quinazoline-2-carbimidate] | – | – |
| > 10 µM | > 10 µM | > 10 µM | > 10 µM | > 260 °C | COc1ccc(Nc2ncnc3ccc4nc(C#N)sc4c23)cc1 [Compound 7, 9-(4-Methoxyphenylamino)thiazolo[5,4-f]quinazoline-2-carbonitrile] | – | – |
| > 10 µM | > 10 µM | > 10 µM | > 10 µM | > 260 °C | N#Cc1nc2ccc3ncnc(Nc4ccc(Br)cc4F)c3c2s1 [Compound 9, 9-(4-Bromo-2-fluorophenylamino)thiazolo[5,4-f]quinazoline-2-carbonitrile] | – | – |

| SMILES | IC50 (DYRK1A) | IC50 (CK1δ/ε) | IC50 (CDK5/p25) | IC50 (GSK-3α/β) | melting point | IC50 (DYRK1A; [1]) | IC50 (CDK5/p25; [1]) |
| --- | --- | --- | --- | --- | --- | --- | --- |
| N=C(NCCN1CCCC1)c1nc2ccc3ncnc(Nc4ccc(Br)cc4F)c3c2s1 [Compound 9c, 9-(4-Bromo-2-fluorophenylamino)-N-(2-(pyrrolidin-1-yl)ethyl)thiazolo[5,4-f]quinazoline-2-carboxi-midamide] | – | > 10 µM | – | 2.2 µM | – | > 10 µM | > 10 µM |
| CN(C)CCNC(=N)c1nc2ccc3ncnc(Nc4ccc(F)c(Cl)c4)c3c2s1 [Compound 10d, 9-(3-Chloro-4-fluorophenylamino)-N-(2-(dimethylamino)ethyl)thiazolo[5,4-f]quinazoline-2-carboxi-midamide] | – | > 10 µM | – | 3 µM | – | > 10 µM | > 10 µM |
| N=C(NCCN1CCCC1)c1nc2ccc3ncnc(Nc4ccc5c(c4)OCO5)c3c2s1 [Compound 8c, 9-(Benzo[d][1,3]dioxol-5-ylamino)-N-(2-(pyrrolidin-1-yl)ethyl)thiazolo[5,4-f]quinazoline-2-carboxi-midamide] | – | > 10 µM | – | 0.36 µM | – | 1.1 µM | > 10 µM |
